Counter-ions that a name gives are not always drawn. Like-named read-outs stand apart in the source and are kept apart here. One block for each compound: values may come before it.
Columns and labels:
[1] = tested on: HCT116; experiment: HCT116 formate rescue assay (with sodium formate 1 mM); type: cell-based; details: Homo sapiens, HCT-116, 96 h, HCT116 growth
Experimental: (§1) Example 5. HCT116 Growth Inhibition and Formate Rescue Assays
(§2) 3,000 Cells were plated in each well of a 96-well plate with 80 μL of DMEM media supplemented with 10% dFBS, and incubated for 24 hours. Drugs with or without sodium formate (1 mM) were then added to each well to a final volume of 100 μL. Cell growth was measured as fluorescence intensity by resazurin after four days. In short, resazurin was added to each well to a final concentration of 10 μg·mL^−1. After incubation for one hour, fluorescence was measured by a Synergy HT plate reader (BioTek Instruments).

[2] = Mouse liver microsome assay (metabolic stability); type: in vitro ADME; details: mouse liver microsomes; for half-life at 2 µM: in vitro half-life; for microsomal CLint at 2 µM: in vitro intrinsic clearance, read-out: Relative Clint
Experimental: Example 6. Mouse Liver Microsome Assay
Metabolic stability of several compounds in mouse liver microsomes was tested. Briefly, a master solution was prepared according to Table 31.
Two separate experiments were performed: an experiment with cofactors and an experiment without cofactors. In the experiment with cofactors 40 μL of 10 mM NADPH and 40 μL of 20 mM UDPGA were added to the incubations. The final concentrations of microsomes, NADPH and UDPGA were 0.5 mg/mL, 1 mM and 2 mM, respectively. In the experiment without cofactors 10 μL of 20 mg/mL liver microsomes and 80 μL of ultra-pure H2O were added to the incubations. The final concentration of microsomes was 0.5 mg/mL. The mixture was pre-warmed at 37° C. for 5 minutes.
The reaction was started with the addition of 4 μL of 200 μM control compound or test compound solutions. Verapamil was used as positive control in this study. The final concentration of test compound was 2 μM and the final concentration of control compound was 1 μM. The incubation solution was incubated in water bath at 37° C.
Aliquots of 50 μL were taken from the reaction solution at 0.5, 5, 15, 30, 45 and 60 minutes. The reaction was stopped by the addition of five volumes of cold acetonitrile with IS (100 nM alprazolam, 200 nM caffeine and 100 nM tolbutamide). Samples were centrifuged at 3,220 g for 40 minutes. Aliquot of 100 μL of the supernatant was mixed with 100 μL of ultra-pure H2O and then subject to LC-MS/MS analysis.
All calculations were carried out using Microsoft Excel. Peak areas were determined from extracted ion chromatograms. The slope value, k, was determined by linear regression of the natural logarithm of the remaining percentage of the parent drug versus incubation time curve. The in vitro half-life (in vitro t½) was determined from the slope value:
Conversion of the in vitro t1/2(min) into the in vitro intrinsic clearance (in vitro CLint, in μL/min/mg protein) was done using the following equation (mean of duplicate determinations): […]

[3] = tested on: HCT116; experiment: HCT116 growth inhibition assay; type: cell-based; details: without formate
Experimental: as §1, §2

[4] = Pharmacokinetics study of KDG-0320-0A in male CD1 mice (Example 1); type: in vivo; details: for F: bioavailability vs 1 mg/kg IV; for MRT inf: read-out: MRTInf_obs
Experimental: A standard pharmacokinetic (PK) study of KDG-0320-0A was performed in male CD1 mice dosed with a single oral, intravenous or intraperitoneal dose of KDG-0320-0A. The parameters of the PK study are described in Table 2. Dosing solutions were freshly made prior to use. […] For IV, PO and IP, after collection, plasma samples from the same time point were pooled, and the pooled samples were analyzed by LC/MS/MS.
The desired serial concentrations of working solutions were achieved by diluting stock solution of analyte with 50% acetonitrile in water solution. 5 μL of working solutions (2, 4, 10, 20, 100, 200, 1000, 2000 ng/mL) were added to 10 μL of blank CD1 mouse plasma to achieve calibration standards of 1-1000 ng/mL (1, 2, 5, 10, 50, 100, 500, 1000 ng/mL) in a total volume of 15 μL. Four quality control (QC) samples at 2 ng/mL, 5 ng/mL, 50 ng/mL and 800 ng/mL for plasma were prepared independently of those used for the calibration curves. These QC samples were prepared on the day of analysis in the same way as calibration standards.
15 μL standards, 15 μL QC samples and 15 μL unknown samples from the blood sampling (10 μL plasma with 5 μL blank solution) were added to 200 μL of acetonitrile containing IS mixture for precipitating protein. Then, the samples were vortexed for 30 seconds. After centrifugation at 4 degrees Celsius, 4000 rpm for 15 minutes, the supernatant was diluted three times with water. 15 μL of diluted supernatant was injected into the LC/MS/MS system for quantitative analysis.
BLOQ=Below quantifiable limit of 1 ng/mL. PK parameters were estimated by non-compartmental model using WinNonlin 6.1. The PO bioavailability (F %) was calculated as following:
AUClast-PO/AUCINF-PO>80%: F=(AUCINF-PO*DoseIV)/(mean AUCINF-IV*DosePO) AUClast-PO/AUCINF-PO≤80% or AUCINF was not available: F=(AUClast-PO*DoseIV)/(mean AUClast-IV*DosePO).
The IP bioavailability (F %) was calculated as following:
AUClast-IP/AUCINF-IP>80%: F=(AUCINF-IP*DoseIV)/(mean AUCINF-IV*DoseIP) AUClast-IP/AUCINF-IP≤80% or AUCINF was not available: F=(AUClast-IP*DoseIV)/(mean AUClast-IV*DoseIP).

[5] = mouse, plasma, 1 mg/kg IV, read-out: Concentration IV_Mean
[6] = mouse, plasma, 30 mg/kg IP, read-out: Concentration IP_Mean
[7] = mouse, plasma, 50 mg/kg PO, read-out: Concentration PO_Mean

IC50 [1]: > 5 µM
half-life at 2 µM [2]: 0.167 to 0.333 h
microsomal CLint at 2 µM [2]: 70 to 100 µL/min/mg
IC50 [3]: A″
SMILES: Cc1n[nH]c2c1C(c1cc(C#CC3CN(C(=O)OC(C)(C)C)C3)cc(CO)c1)(C(C)C)C(C#N)=C(N)O2 (centres unmarked) [KDG-0271, tert-butyl 3-[2-(3-[6-amino-5-cyano-4-isopropyl-3-methyl-1H-pyrano[2,3-c]pyrazol-4-yl]-5-(hydroxymethyl)phenyl)ethynyl]azetidine-1-carboxylate]

IC50 [1]: < 0.1 µM
half-life at 2 µM [2]: ≥ 0.333 h
microsomal CLint at 2 µM [2]: ≤ 70 µL/min/mg
IC50 [3]: B″
AUC_%Extrap_obs ([4]; 1 mg/kg IV): 2.88%
AUClast/D ([4]; 1 mg/kg IV): 155 kg·ng·h/mL/mg
Cl_obs ([4]; 1 mg/kg IV): 104 mL/min/kg
Vss_obs ([4]; 1 mg/kg IV): 3.96 L/kg
AUC_%Extrap_obs ([4]; 30 mg/kg IP): 1.41%
AUClast/D ([4]; 30 mg/kg IP): 258 kg·ng·h/mL/mg
F ([4]; 30 mg/kg IP): 164%
AUC_%Extrap_obs ([4]; 50 mg/kg PO): 1.77%
AUClast/D ([4]; 50 mg/kg PO): 32.5 kg·ng·h/mL/mg
F ([4]; 50 mg/kg PO): 20.8%
AUC(0-inf) ([4]; mouse, plasma, 1 mg/kg IV): 160 ng·h/mL
AUC(0-t) ([4]; mouse, plasma, 1 mg/kg IV): 155 ng·h/mL
C0 ([4]; mouse, plasma, 1 mg/kg IV): 575 ng/mL
half-life ([4]; mouse, plasma, 1 mg/kg IV): 1.04 h
concentration at 0.083 h ([4]; mouse, plasma, 1 mg/kg IV, 0.083 h, read-out: Concentration IV_Mean): 363 ng/mL
concentration at 0.25 h [4, 5]: 144 ng/mL
concentration at 0.5 h [4, 5]: 60.2 ng/mL
concentration at 1 h [4, 5]: 25.7 ng/mL
concentration at 2 h [4, 5]: 7.16 ng/mL
concentration at 4 h [4, 5]: 3.07 ng/mL
MRT inf ([4]; mouse, plasma, 1 mg/kg IV): 0.632 h
AUC(0-inf) ([4]; mouse, plasma, 30 mg/kg IP): 7840 ng·h/mL
AUC(0-t) ([4]; mouse, plasma, 30 mg/kg IP): 7730 ng·h/mL
Cmax ([4]; mouse, plasma, 30 mg/kg IP): 7460 ng/mL
Tmax ([4]; mouse, plasma, 30 mg/kg IP): 0.25 h
half-life ([4]; mouse, plasma, 30 mg/kg IP): 1.66 h
concentration at 0.25 h [4, 6]: 7460 ng/mL
concentration at 0.5 h [4, 6]: 5240 ng/mL
concentration at 1 h [4, 6]: 3060 ng/mL
concentration at 2 h [4, 6]: 589 ng/mL
concentration at 4 h [4, 6]: 211 ng/mL
concentration at 8 h ([4]; mouse, plasma, 30 mg/kg IP, 8 h, read-out: Concentration IP_Mean): 46.2 ng/mL
MRT inf ([4]; mouse, plasma, 30 mg/kg IP): 1.27 h
AUC(0-inf) ([4]; mouse, plasma, 50 mg/kg PO): 1660 ng·h/mL
AUC(0-t) ([4]; mouse, plasma, 50 mg/kg PO): 1630 ng·h/mL
Cmax ([4]; mouse, plasma, 50 mg/kg PO): 605 ng/mL
Tmax ([4]; mouse, plasma, 50 mg/kg PO): 1 h
half-life ([4]; mouse, plasma, 50 mg/kg PO): 1.28 h
concentration at 0.25 h [4, 7]: 117 ng/mL
concentration at 0.5 h [4, 7]: 315 ng/mL
concentration at 1 h [4, 7]: 605 ng/mL
concentration at 2 h [4, 7]: 411 ng/mL
concentration at 4 h [4, 7]: 126 ng/mL
concentration at 8 h ([4]; mouse, plasma, 50 mg/kg PO, 8 h, read-out: Concentration PO_Mean): 15.8 ng/mL
MRT inf ([4]; mouse, plasma, 50 mg/kg PO): 2.3 h
Concentration IV_Mean ([4]; plasma, 1 mg/kg IV, 8 h): BLOQ
SMILES: Cc1n[nH]c2c1C(c1cc(C#C[C@H]3CC[C@H](NC(=O)OC(C)(C)C)CC3)cc(CO)c1)(C(C)C)C(C#N)=C(N)O2 (some centres unmarked) [KDG-0320, tert-butyl N-[(1r,4r)-4-[2-(3-[6-amino-5-cyano-4-isopropyl-3-methyl-1H-pyrano[2,3-c]pyrazol-4-yl]-5-(hydroxymethyl)phenyl)ethynyl]cyclohexyl]carbamate hydrochloride]
clinical symptoms ([4]; single dose 1 mg/kg IV, 50 mg/kg PO or 30 mg/kg IP, entire experiment): No abnormal clinical symptoms were observed

IC50 [1]: > 5 µM
half-life at 2 µM [2]: ≥ 0.333 h
microsomal CLint at 2 µM [2]: ≤ 70 µL/min/mg
IC50 [3]: B″
SMILES: Cc1n[nH]c2c1C(c1cc(C#C[C@H]3C[C@@H](NC(=O)OC(C)(C)C)C3)cc(CO)c1)(C(C)C)C(C#N)=C(N)O2 (some centres unmarked) [KDG-0388, tert-butyl N-[(1s,3s)-3-[2-(3-[6-amino-5-cyano-4-isopropyl-3-methyl-1H-pyrano[2,3-c]pyrazol-4-yl]-5-(hydroxymethyl)phenyl)ethynyl]cyclobutyl]carbamate]
